Counter-ions that a name gives are not always drawn. Like-named read-outs stand apart in the source and are kept apart here.

Data set [1] concerns sweet corn (Delicious 100). Briefly: Visual growth study, phytotoxicity index, chemicals scattered 14 days after sowing. As to conditions: 1.5 leaves stage, treated 14 days after sowing, 8 days after treatment, 0-100 scale, 4-(tert-butyl)benzoic acid 1000 g ai/ha in Examples, 0 in Comparative Examples, herbicide dose per label. The format is in vivo. As to the method: (§1) These containers were each kept standing on a water vat filled with a water pool from which water was supplied through the opening in the bottom. […] After 8 days from the chemical treatment and after 14 days from the chemical treatment, visual growth studies were conducted for sweet corn, sorghum and adzuki bean and for wheat, barley, dry-paddy rice, soybean, rapeseed and beet, respectively and the results are shown in Table 2 and Table 3.

In data set [2] the test system is soybean (Fukuyutaka). The data set is described as above. As to conditions: true leaf extraction stage, treated 14 days after sowing, 14 days after treatment, 0-100 scale, 4-(tert-butyl)benzoic acid 1000 g ai/ha in Examples, 0 in Comparative Examples, herbicide dose per label. The class given is in vivo. The method, then: as §1
The test system of data set [3] is wheat (Brigadier). The description is as above. The class given is in vivo. As to the method: as §1
Data set [4] concerns dry-paddy rice (Labell). The data set is described as above. The format is in vivo. As to conditions: 0.8 leaves stage, treated 14 days after sowing, 14 days after treatment, 0-100 scale, 4-(tert-butyl)benzoic acid 1000 g ai/ha in Examples, 0 in Comparative Examples, herbicide dose per label. As to the method: as §1
Data set [5] concerns soybean (Fukuyutaka). Briefly: Visual growth study, phytotoxicity index, chemicals scattered on the next day after sowing. As to the method:
(§2) A wettable powder containing 10% of 4-(tert-butyl)benzoic acid was prepared by blending pulverization of 10 parts of 4-(tert-butyl)benzoic acid, 2 parts of a sodium salt of naphthalenesulfonic acid-formalin condensation product, 2 parts of a polyoxyethylene alkyl ether, 30 parts of diatomaceous earth and 56 parts of clay by using a high-speed air-jet pulverizer.
(§3) These containers were each kept standing in a water vat and water supply for pooling was introduced through the hole opening at the bottom of the water vat.
(§4) For comparison, on the other hand, evaluation was made by conducting growth studies by growing sweet corn, wheat, dry-paddy rice, sorghum, soybean, adzuki bean and rapeseed under the same conditions as in the Examples excepting for the omission of scattering of 4-(tert-butyl)benzoic acid.

Another data set relates to barley (Minori Rokujo). The data set can be described thus: Visual growth study, phytotoxicity index, chemicals scattered 14 days after sowing. The settings on record: in vivo. The method, then: as §1
The test system of data set [6] is dry-paddy rice (Labell). Briefly: Visual growth study, phytotoxicity index, chemicals scattered on the next day after sowing. The format is in vivo. As to conditions: treated next day after sowing, 26 days after treatment, 0 = no growth inhibition, 100 = full dying, 4-(tert-butyl)benzoic acid 1000 g ai/ha in Examples, 0 in Comparative Examples, herbicide dose per label. As to the method:
as §2, §3, §4

Another data set relates to rapeseed. The data set can be described thus: Visual growth study, phytotoxicity index, chemicals scattered 14 days after sowing. The class given is in vivo. As to the method: as §1
A further data set concerns sorghum (Funk's Hybrid). Briefly: Visual growth study, phytotoxicity index, chemicals scattered on the next day after sowing. As to conditions: treated next day after sowing, 11 days after treatment, 0 = no growth inhibition, 100 = full dying, 4-(tert-butyl)benzoic acid 1000 g ai/ha in Examples, 0 in Comparative Examples, herbicide dose per label. As to the method:
as §2, §3, §4

The test system of a further data set is adzuki bean (Dainagon). The data set can be described thus: Visual growth study, phytotoxicity index, chemicals scattered 14 days after sowing. The format is in vivo. As to the method:
as §1

Another data set relates to beet (VIGIL). The description is as above. The class given is in vivo. The settings on record: true leaf extraction stage, treated 14 days after sowing, 14 days after treatment, 0-100 scale, 4-(tert-butyl)benzoic acid 1000 g ai/ha in Examples, 0 in Comparative Examples, herbicide dose per label. The method, then:
as §1

In data set [7] the test system is wheat (Brigadier). The settings on record: in vivo. The method, then:
as §2, §3, §4

In data set [8] the test system is sweet corn (Delicious 100). The data set can be described thus: Visual growth study, phytotoxicity index, chemicals scattered on the next day after sowing. As to conditions: treated next day after sowing, 26 days after treatment, 0 = no growth inhibition, 100 = full dying, 4-(tert-butyl)benzoic acid 1000 g ai/ha in Examples, 0 in Comparative Examples, herbicide dose per label. The method, then: as §2, §3, §4

Setting [9] is: wheat, 2 leaves stage, treated 14 days after sowing, 14 days after treatment, 0-100 scale, 4-(tert-butyl)benzoic acid 1000 g ai/ha in Examples, 0 in Comparative Examples, herbicide dose per label.

For the compound `COC[C@H](C)N(C(=O)CCl)c1c(C)csc1C` [compound 15, Dimethenamide-P], in data set [1], the Phytotoxicity index is 20. Compound `O=C(Nc1ccc(F)cc1F)c1cccnc1Oc1cccc(C(F)(F)F)c1` [compound 17, Diflufenican] registered a Phytotoxicity index in data set [1] of 35.

`O=C(Nc1ccc(F)cc1F)c1cccnc1Oc1cccc(C(F)(F)F)c1` [compound 26, Diflufenican] gave a Phytotoxicity index in the data set with soybean (Fukuyutaka) [2] of 30. For the compound `O=C(Nc1ccc(F)cc1F)c1cccnc1Oc1cccc(C(F)(F)F)c1` [compound 22, Diflufenican], the Phytotoxicity index in the data set with wheat (Brigadier) [3] (setting [9]) worked out at 15. `COc1cc(OC)nc(Oc2cccc(Oc3nc(OC)cc(OC)n3)c2C(=O)O)n1` [compound 24, Bispyribac-sodium] had a Phytotoxicity index in the data set on dry-paddy rice (Labell) [4] of 18. In turn, `COC[C@H](C)N(C(=O)CCl)c1c(C)csc1C` [compound 25, Dimethenamide-P] registered a Phytotoxicity index with soybean (Fukuyutaka) [2] of 15.

In the data set with soybean (Fukuyutaka) [5] (soybean, treated next day after sowing, 26 days after treatment, 0 = no growth inhibition, 100 = full dying, 4-(tert-butyl)benzoic acid 1000 g ai/ha in Examples, 0 in Comparative Examples, herbicide dose per label), `COC[C@H](C)N(C(=O)CCl)c1c(C)csc1C` [compound 10, Dimethenamide-P] displayed a Phytotoxicity index of 20. In turn, `Cn1nc(C(F)(F)F)c(CS(=O)(=O)C2=NOC(C)(C)C2)c1OC(F)F` [compound 20] had a Phytotoxicity index in the data set with wheat (Brigadier) [3] (in vivo) of 20.

The compound `Cn1nc(C(F)(F)F)c(CS(=O)(=O)C2=NOC(C)(C)C2)c1OC(F)F` [compound 23] came in with a Phytotoxicity index in the data set on barley (Minori Rokujo) of 18. In the data set on wheat (Brigadier) [3] (setting [9]), `CCOC(=O)[C@@H](C)Oc1ccc(Oc2nc3ccc(Cl)cc3o2)cc1` [compound 18, Fenoxaprop-P-ethyl] registered a Phytotoxicity index of 40. `CCNc1nc(Cl)nc(NC(C)C)n1` [compound 7, Atrazine] displayed a Phytotoxicity index with dry-paddy rice (Labell) [6] of 35.

With `COc1cc(OC)nc(Oc2cccc(Oc3nc(OC)cc(OC)n3)c2C(=O)O)n1` [compound 19, Bispyribac-sodium], in the data set with wheat (Brigadier) [3] (setting [9]), the Phytotoxicity index is 35. For the compound `COC[C@H](C)N(C(=O)CCl)c1c(C)csc1C` [compound 29, Dimethenamide-P], the Phytotoxicity index with rapeseed (rapeseed, two paired leaves extraction stage, treated 14 days after sowing, 14 days after treatment, 0-100 scale, 4-(tert-butyl)benzoic acid 1000 g ai/ha in Examples, 0 in Comparative Examples, herbicide dose per label) was 10. Consider `CC(C)C1(C)N=C(c2nc3ccccc3cc2C(=O)O)NC1=O` (stereo not shown) [compound 8, Imazaquin ammonium salt], for which the Phytotoxicity index with sorghum (Funk's Hybrid) is recorded as 45. With `Cn1nc(C(F)(F)F)c(CS(=O)(=O)C2=NOC(C)(C)C2)c1OC(F)F` [compound 27], the Phytotoxicity index with adzuki bean (Dainagon) (in vivo) is recorded as 25. For the compound `Cn1nc(C(F)(F)F)c(CS(=O)(=O)C2=NOC(C)(C)C2)c1OC(F)F` [compound 30], the Phytotoxicity index in the data set with rapeseed (in vivo) was determined as 40. Turning to `CS(=O)(=O)c1ccc(C(=O)C2C(=O)CCCC2=O)c([N+](=O)[O-])c1` [compound 16, Mesotrione], the Phytotoxicity index in [1] amounted to 13. For the compound `COC[C@H](C)N(C(=O)CCl)c1c(C)csc1C` [compound 31, Dimethenamide-P], the Phytotoxicity index in the data set with beet (VIGIL) is recorded as 35. The compound `Cc1ccn2nc(S(=O)(=O)Nc3c(F)cccc3F)nc2n1` [compound 4, Flumetsulam] showed a Phytotoxicity index with wheat (Brigadier) [7] of 13. In the case of `CCNc1nc(Cl)nc(NC(C)C)n1` [compound 3, Atrazine], the Phytotoxicity index in [8] was determined as 15. Compound `Cn1nc(C(F)(F)F)c(CS(=O)(=O)C2=NOC(C)(C)C2)c1OC(F)F` [compound 11] displayed a Phytotoxicity index in the data set on soybean (Fukuyutaka) [5] (in vivo) of 20.

In the data set on wheat (Brigadier) [3] (setting [9]), `CS(=O)(=O)c1ccc(C(=O)C2C(=O)CCCC2=O)c([N+](=O)[O-])c1` [compound 21, Mesotrione] registered a Phytotoxicity index of 40.

For `COC[C@H](C)N(C(=O)CCl)c1c(C)csc1C` [compound 2, Dimethenamide-P], the Phytotoxicity index in [8] is on record as 33.

In data set [1], `COc1cc(OC)nc(Oc2cccc(Oc3nc(OC)cc(OC)n3)c2C(=O)O)n1` [compound 14, Bispyribac-sodium] registered a Phytotoxicity index of 45. As to `O=C(Nc1ccc(F)cc1F)c1cccnc1Oc1cccc(C(F)(F)F)c1` [compound 28, Diflufenican], the Phytotoxicity index in the data set with adzuki bean (Dainagon) (adzuki bean, true leaf extraction stage, treated 14 days after sowing, 8 days after treatment, 0-100 scale, 4-(tert-butyl)benzoic acid 1000 g ai/ha in Examples, 0 in Comparative Examples, herbicide dose per label) was 35.

Values taken from patent publication US8318635B2, “Phytotoxicity controlling agent for upland farming and phytotoxicity controlling method using the same” (priority 2006, dated 2012).
